# Data as given in patent US8440794B2, “Peptide sequences, their branched form and use thereof for antimicrobial applications” (Universita' Degli Studi di Siena, priority 2008, dated 2013).
# Where a SMILES comes first, the peptide text is derived from it. Bridges are numbered along the chain shown (N, C = ends). Roman numbers before positions name the chains, in order. [ ]: non-standard residue; d: D form. βAla = NCCC(=O)O
# Experiments:
# [1] = system: A. baumannii MR157; assay type: cell-based, Acinetobacter baumannii; details: MR157, 24 h
# Experimental: (§1) M33, […], M35 and M36 MICs were determined against strains of several bacterial species, including Gram-negative pathogens and also Staphylococcus aureus (Table 1). MICs in the micromolar range were observed against several Gram-negatives including Pseudomonas aeruginosa, Acinetobacter baumannii and most Enterobacteriaceae, with the exception of Proteus mirabilis, Serratia marcescens and Burkholderia cepacia. Activity of peptides was retained against MDR strains with various resistance mechanisms (such as extended-spectrum beta-lactamases and carbapenemases), including MDR P. aeruginosa strains from CF patients. Antimicrobial profile of M33, […] and potency were overall similar to those of polymyxin B, although M33, M34, M35 and M36 also appeared to have some activity against S. aureus (Table 1).
# [2] = system: A. baumannii RUH 875; assay type: cell-based, Acinetobacter baumannii; details: RUH 875, 24 h
# Experimental: as §1
# [3] = system: S. aureus 3851; assay type: cell-based, Staphylococcus aureus; details: 3851, 24 h
# Experimental: as §1
# [4] = system: Serratia marcescens W03BG0003; assay type: cell-based; details: W03BG0003, 24 h
# Experimental: as §1
# [5] = system: Staphylococcus aureus ATCC 29213; assay type: cell-based; details: ATCC 29213, 24 h
# Experimental: as §1
# [6] = system: Klebsiella pneumoniae ATCC 13833; assay type: cell-based; details: ATCC 13833, 24 h
# Experimental: as §1
# [7] = system: Proteus mirabilis W03VA1017; assay type: cell-based; details: W03VA1017, 24 h
# Experimental: as §1
# [8] = system: Enterobacer aerogenes W03BG0067; assay type: cell-based; details: 24 h
# Experimental: as §1
# [9] = system: Escherichia coli ATCC 25922; assay type: cell-based; details: ATCC 25922, 24 h
# Experimental: as §1
# [10] = system: Acinetobacter baumannii RUH 134; assay type: cell-based; details: RUH 134, 24 h
# Experimental: as §1
# [11] = system: Enterobacter cloacae W03AN0041; assay type: cell-based; details: W03AN0041, 24 h
# Experimental: as §1
# [12] = system: Burkholderia cepacia ORB-99; assay type: cell-based; details: 24 h
# Experimental: as §1
# [13] = system: Pseudomonas aeruginosa ATCC 27853; assay type: cell-based; details: ATCC 27853, 24 h
# Experimental: as §1
# [14] = system: E. coli W03BG0025; assay type: cell-based, Escherichia coli; details: W03BG0025, 24 h
# Experimental: as §1
# [15] = system: K pneumoniae C8-27; assay type: cell-based, Klebsiella pneumoniae; details: C8-27, 24 h
# Experimental: as §1
# [16] = system: K pneumoniae FIPP-1; assay type: cell-based, Klebsiella pneumoniae; details: FIPP-1, 24 h
# Experimental: as §1
# [17] = system: K pneumoniae 7086042; assay type: cell-based, Klebsiella pneumoniae; details: 7086042, 24 h
# Experimental: as §1
# [18] = system: human erythrocytes; assay type: cell-based
# Experimental: FIG. 2. Percentage of haemolysis provoked by tetra-branched M33 peptide incubated 3 or 24 hours with human red blood cells.
# Haemolysis of fresh human erythrocytes was determined using the method of Parpart, summarized as follows. A calibration curve was constructed by suspending fresh human erythrocytes in phosphate buffer (pH 7.4, 110 mM sodium phosphate) with various concentrations of NaCl and incubated for 30 min at room temperature. Samples were centrifuged at 500×g for 5 minutes, and haemoglobin release was monitored by measuring the absorbance of supernatants at 540 nm. The absorbance obtained with 0.1% NaCl corresponded to 100% lysis and that with 1% NaCl, to 0% lysis. Peptides dissolved in PBS were added to human erythrocyte solution at several concentrations. The resulting suspension was incubated separately at 37° C. for 2 h and 24 h. Release of hemoglobin was monitored by measuring the absorbance of the suspernatant at 540 nm after centrifuging and haemolysis percentage was calculated using the calibration curve.
# [19] = system: P. aeruginosa PAO-1; assay type: cell-based, Pseudomonas aeruginosa; details: PAO-1, 24 h
# Experimental: as §1
# [20] = system: P. aeruginosa SC-CNm03-07; assay type: cell-based, Pseudomonas aeruginosa; details: SC-CNm03-07, 24 h
# Experimental: as §1
# [21] = system: P. aeruginosa AV65; assay type: cell-based, Pseudomonas aeruginosa; details: AV65, 24 h
# Experimental: as §1
# [22] = system: P. aeruginosa EF-OBG6-1; assay type: cell-based, Pseudomonas aeruginosa; details: EF-OBG6-1, 24 h
# Experimental: as §1
# [23] = system: P. aeruginosa VR-143/97; assay type: cell-based, Pseudomonas aeruginosa; details: VR-143/97, 24 h
# Experimental: as §1
# [24] = system: P. aeruginosa SC-MDm03-02; assay type: cell-based, Pseudomonas aeruginosa; details: SC-MDm03-02, 24 h
# Experimental: as §1
# [25] = system: P. aeruginosa SC-MDr03-06; assay type: cell-based, Pseudomonas aeruginosa; details: SC-MDr03-06, 24 h
# Experimental: as §1
# [26] = system: P. aeruginosa SC-GMm03-05; assay type: cell-based, Pseudomonas aeruginosa; details: SC-GMm03-05, 24 h
# Experimental: as §1
# [27] = system: P. aeruginosa SC-DMr05-04; assay type: cell-based, Pseudomonas aeruginosa; details: SC-DMr05-04, 24 h
# Experimental: as §1
# [28] = system: P. aeruginosa SC-VMr04-05; assay type: cell-based, Pseudomonas aeruginosa; details: SC-VMr04-05, 24 h
# Experimental: as §1
# [29] = system: P. aeruginosa SC-BGr12-02; assay type: cell-based, Pseudomonas aeruginosa; details: SC-BGr12-02, 24 h
# Experimental: as §1
compound,measurement,setting,value
"CC[C@H](C)[C@H](NC(=O)[C@H](CCCCN)NC(=O)[C@@H](N)CCCNC(=N)N)C(=O)N[C@@H](CCCNC(=N)N)C(=O)N[C@H](C(=O)N[C@@H](CCCNC(=N)N)C(=O)N[C@@H](CC(C)C)C(=O)N[C@@H](CO)C(=O)N[C@@H](C)C(=O)NCCCC[C@H](NC(=O)[C@H](C)NC(=O)[C@H](CO)NC(=O)[C@H](CC(C)C)NC(=O)[C@H](CCCNC(=N)N)NC(=O)[C@@H](NC(=O)[C@H](CCCNC(=N)N)NC(=O)[C@@H](NC(=O)[C@H](CCCCN)NC(=O)[C@@H](N)CCCNC(=N)N)[C@@H](C)CC)C(C)C)C(=O)NCCCC[C@H](NC(=O)[C@H](CCCCNC(=O)[C@H](C)NC(=O)[C@H](CO)NC(=O)[C@H](CC(C)C)NC(=O)[C@H](CCCNC(=N)N)NC(=O)[C@@H](NC(=O)[C@H](CCCNC(=N)N)NC(=O)[C@@H](NC(=O)[C@H](CCCCN)NC(=O)[C@@H](N)CCCNC(=N)N)[C@@H](C)CC)C(C)C)NC(=O)[C@H](C)NC(=O)[C@H](CO)NC(=O)[C@H](CC(C)C)NC(=O)[C@H](CCCNC(=N)N)NC(=O)[C@@H](NC(=O)[C@H](CCCNC(=N)N)NC(=O)[C@@H](NC(=O)[C@H](CCCCN)NC(=O)[C@@H](N)CCCNC(=N)N)[C@@H](C)CC)C(C)C)C(=O)NCCC(=O)O)C(C)C [M36, RKIRVRLSA] (I: H-RKIRVRLSAKK[βAla]-OH / II: H-RKIRVRLSAK / III: H-RKIRVRLSA / IV: H-RKIRVRLSA; amide I:10-IV:C, I:11-II:C, II:10-III:C; N-terminus assumed)",MIC,[1],3 µM
same,MIC,[2],3 µM
same,MIC,[3],6 µM
same,MIC,[4],>24 µM
same,MIC,[5],6 µM
same,MIC,[6],1.5 µM
same,MIC,[7],>24 µM
same,MIC,[8],1.5 µM
same,MIC,[9],1.5 µM
same,MIC,[10],1.5 µM
same,MIC,[11],3 µM
same,MIC,[12],>24 µM
same,MIC,[13],1.5 µM
same,MIC,[14],1.5 µM
same,MIC,[15],1.5 µM
same,MIC,[16],3 µM
same,MIC,[17],3 µM
same,Haemolysis of human red blood cells,[18],practically negligible haemolysis grade
same,MIC,[19],1.5 µM
same,MIC,[20],0.3 µM
same,MIC,[21],1.5 µM
same,MIC,[22],1.5 µM
same,MIC,[23],1.5 µM
same,MIC,[24],3 µM
same,MIC,[25],3 µM
same,MIC,[26],1.5 µM
same,MIC,[27],1.5 µM
same,MIC,[28],3 µM
same,MIC,[29],1.5 µM
